These results are taken from PubChem BioAssay (NCI).

Among the test systems are U251 CNS; HT29 colon; SNB-75 CNS; UACC-62 melanoma; CAKI-1 renal; SK-MEL-5 melanoma; OVCAR-8 ovarian; HOP-62 NSCLC; EKVX NSCLC; HOP-92 NSCLC.
What all share (experiment): DTP human tumour cell line panel, 48 h

Several values for one entry are separate records, joined by “and”; a condition that tells them apart may be missing. Equal entries are not always repeated.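 The compound was tested at five concentrations on cells cultured in 96-well plates, with a 48-hour exposure period. GI50: concentration for 50% inhibition of growth. At the TGI there is no net growth.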

The GI50 is the concentration that inhibits growth by half. For orientation: TGI means the concentration at which net growth stops. Lower therefore signals greater sensitivity of the cells. Consider `CC1=C/C(O)CC(=O)Cc2nc(co2)C(=O)N2CCC=C2C(=O)OC(C(C)C)C(C)/C=C\C(=O)NC/C=C\1` (stereo unspecified), for which the GI50 in the experiment on U251 CNS was 24.8 µM; in the experiment with HT29 colon it was 13.2 µM; with SNB-75 CNS, 21.4 µM; with UACC-62 melanoma, 20.1 µM; in the experiment with CAKI-1 renal it was 44.4 µM; in the experiment with SK-MEL-5 melanoma it was 10.3 µM. Also, the GI50 with OVCAR-8 ovarian is 24.8 µM; in the experiment with HOP-62 NSCLC it was 19.1 µM; in the experiment on EKVX NSCLC it was 36.4 µM; with HOP-92 NSCLC, 18 µM. Besides, the TGI in the experiment with U251 CNS is above 100 µM; in the experiment with HT29 colon it was 30.7 µM and 31.8 µM; in the experiment on SNB-75 CNS it was above 100 µM; in the experiment with UACC-62 melanoma, > 57.6 µM and 32.3 µM; with CAKI-1 renal it was > 84.1 µM and 70.1 µM; in the experiment with SK-MEL-5 melanoma it was 29.3 µM and > 100 µM. In addition, the TGI in the experiment with OVCAR-8 ovarian was > 100 µM and 35 µM; in the experiment on HOP-62 NSCLC, above 100 µM; in the experiment on EKVX NSCLC it was > 100 µM and 53.3 µM; with HOP-92 NSCLC it was above 86.2 µM.

For the compound `CN(C)CCCN1c2ccc(O)cc2Sc2ccc(Cl)cc21`, the TGI with U251 CNS is 21.6 µM; in the experiment on HT29 colon, 14.7 µM; in the experiment with SNB-75 CNS, 21 µM; in the experiment with UACC-62 melanoma, 21.8 µM; in the experiment on CAKI-1 renal it was 16 µM; with SK-MEL-5 melanoma it was 28.2 µM. In addition, the TGI stood at 30.5 µM in the experiment with OVCAR-8 ovarian, 29.5 µM with HOP-62 NSCLC, 35.9 µM in the experiment with EKVX NSCLC and 17.2 µM in the experiment with HOP-92 NSCLC.

Turning to `Cc1ccc(NC(=O)N2CCCCC2)cc1[N+](=O)[O-]`, the GI50 with U251 CNS, with HT29 colon, with SNB-75 CNS, in the experiment on UACC-62 melanoma, in the experiment with CAKI-1 renal and in the experiment on SK-MEL-5 melanoma was above 100 µM each time. The GI50 with OVCAR-8 ovarian, in the experiment with HOP-62 NSCLC, with EKVX NSCLC and in the experiment on HOP-92 NSCLC was above 100 µM throughout. The total growth inhibition concentration (TGI) in the experiment on U251 CNS, in the experiment with HT29 colon, in the experiment with SNB-75 CNS, in the experiment on UACC-62 melanoma, in the experiment on CAKI-1 renal and with SK-MEL-5 melanoma was above 100 µM each time. Also, the concentration for total growth inhibition (TGI) in the experiment with OVCAR-8 ovarian, with HOP-62 NSCLC, in the experiment on EKVX NSCLC and in the experiment with HOP-92 NSCLC was above 100 µM in each case.

As for `Cc1cccc(C)c1NC(=O)CCCC(=O)C(C#N)c1ccc(Cl)cc1` (stereo unspecified), the TGI in the experiment with U251 CNS, in the experiment on HT29 colon, in the experiment on SNB-75 CNS, in the experiment on UACC-62 melanoma, in the experiment with CAKI-1 renal and with SK-MEL-5 melanoma was above 100 µM each time. Further, the TGI with OVCAR-8 ovarian, with HOP-62 NSCLC, with EKVX NSCLC and in the experiment with HOP-92 NSCLC was above 100 µM throughout.

With `O=C(O)c1nnsc1-c1csnn1`, the total growth inhibition concentration (TGI) in the experiment on U251 CNS, in the experiment on HT29 colon, in the experiment on SNB-75 CNS, with UACC-62 melanoma, with CAKI-1 renal and in the experiment on SK-MEL-5 melanoma was above 100 µM each time. Further, the TGI in the experiment with OVCAR-8 ovarian, in the experiment on HOP-62 NSCLC, with EKVX NSCLC and in the experiment on HOP-92 NSCLC was above 100 µM throughout.

Consider `O=C(c1ccccc1)c1ccc(O)c2ncccc12`, for which the GI50 in the experiment with U251 CNS is 5.93 µM; with HT29 colon it was 10.1 µM; in the experiment with SNB-75 CNS it was 15 µM; with UACC-62 melanoma it was 2.34 µM; with CAKI-1 renal it was 1.13 µM; with SK-MEL-5 melanoma, 4.72 µM. For the same compound, the GI50 was 4.08 µM in the experiment on OVCAR-8 ovarian, 5.31 µM in the experiment with HOP-62 NSCLC, 3.09 µM in the experiment with EKVX NSCLC and 2.89 µM with HOP-92 NSCLC. The concentration for total growth inhibition (TGI) was 26.2 µM in the experiment on U251 CNS; above 100 µM in the experiment on HT29 colon; 90.7 µM in the experiment with SNB-75 CNS; 10.6 µM with UACC-62 melanoma; 6.3 µM in the experiment with CAKI-1 renal; 26.6 µM with SK-MEL-5 melanoma. The TGI worked out at 41 µM in the experiment with OVCAR-8 ovarian, 48.6 µM in the experiment with HOP-62 NSCLC, 56.1 µM in the experiment with EKVX NSCLC and 16.5 µM with HOP-92 NSCLC.

In the case of `Oc1c(Cl)cc(CN(Cc2cc(Cl)c(O)c(Cl)c2)C2CCCCC2)cc1Cl`, the TGI with U251 CNS, in the experiment with HT29 colon, with SNB-75 CNS, in the experiment with UACC-62 melanoma, in the experiment on CAKI-1 renal and in the experiment on SK-MEL-5 melanoma was above 100 µM throughout. Besides, the TGI with OVCAR-8 ovarian, with HOP-62 NSCLC, with EKVX NSCLC and in the experiment with HOP-92 NSCLC was above 100 µM in each case.

In the case of `Clc1ccc(N/N=C(\c2ccccc2)c2ccccn2)nc1`, the GI50 in the experiment on U251 CNS was 0.344 µM; in the experiment with HT29 colon it was 0.0364 µM; in the experiment on SNB-75 CNS, 0.614 µM; in the experiment on UACC-62 melanoma, 0.288 µM; with CAKI-1 renal, 0.172 µM; in the experiment with SK-MEL-5 melanoma it was 0.32 µM. The concentration for 50% growth inhibition (GI50) with OVCAR-8 ovarian is 0.276 µM; with HOP-62 NSCLC it was 0.31 µM; in the experiment with EKVX NSCLC, 0.0726 µM; in the experiment with HOP-92 NSCLC, 0.445 µM. The concentration for total growth inhibition (TGI) in the experiment on U251 CNS was above 68 µM; in the experiment with HT29 colon it was > 37.2 µM and 10.8 µM; in the experiment with UACC-62 melanoma, > 36.6 µM and 15.5 µM; in the experiment with CAKI-1 renal it was 2.3 µM and 16.7 µM; with HOP-62 NSCLC it was > 33.7 µM and 12.3 µM; in the experiment with HOP-92 NSCLC, > 66.2 µM and 10.2 µM.

On to `CC1(C)Cc2nnsc2C2=C1C(=O)CCS2`, for which the TGI with U251 CNS, in the experiment with HT29 colon, with SNB-75 CNS, in the experiment on UACC-62 melanoma, in the experiment on CAKI-1 renal and with SK-MEL-5 melanoma was above 100 µM in each case. The TGI with OVCAR-8 ovarian, in the experiment with HOP-62 NSCLC, in the experiment with EKVX NSCLC and with HOP-92 NSCLC was above 100 µM throughout.
